Source: paper PMC6563033, “Purification and Characterization of Antioxidant Peptides Derived from Protein Hydrolysate of the Marine Bivalve Mollusk Tergillarca granosa” (Marine Drugs, 2019)
Like-named read-outs stand apart in the source and are kept apart here. Residues, ends and D or L forms follow the SMILES beside them. No end group written: not given here.

Key:
[1] = cited from earlier work
Excerpt: EC50 values of TGP3 and TGP4 were lower than those of APs from protein ...

[2] = cited from earlier work; remark: listed apart in the source
[3] = cited from earlier work; remark: listed apart in the source
Procedure: Defatted muscle of blood cockle was hydrolyzed under a two-enzyme system (Alcalase treatment for 1.5 h following Neutrase treatment for 1.5 h), and the degree of hydrolysis (DH) and yield of the resulted hydrolysate (referred to as TGH) were 19.32 ± 1.37% and 9.62 ± 0.86% (on the basis of defatted muscle), respectively. […] In addition, the EC50 values of TGP3 and TGP4 were lower than those o ...

[4] = cited from earlier work; for Change of activity during heat treatment: heat 25–100 °C; for Change of activity during pH treatment: pH 3–11
Excerpt: Heat treatment is a common method of food processing and APs are helpful to lengthen the food shelf-life if they can keep their activity after heating. Peptides with large-scale pH stability can be incorporated into diverse liquid products and keep their bioactivity. Therefore, thermal and pH stability of peptides are important indexes for their application in functional products, and characterization of those properties can help to design their potential processing parameters. ATSHH from protein hydrolysate of sandfish (Arctoscopus japonicus) partially lost its DPPH radical scaven ...

[5] = Simulated GI digestion (pepsin + pancreatin), read out as hydroxyl radical scavenging EC50; format: in vitro ADME; details: two-stage digestion: pepsin 1.0 h + pancreatin 2.0 h; judged from hydroxyl radical EC50
Procedure: First, 1.0 mL of a 1.87 mM 1,10-phenanthroline solution and 2.0 mL of the sample were added to a screw-capped tube and mixed. Then, 1.0 mL of a FeSO4·7H2O solution (1.87 mM) was added to the mixture. The reaction was initiated by adding 1.0 mL of H2O2 (0.03%, v/v). After being incubated at 37 °C for 60 min in a water bath, the absorbance of the reaction mixture was measured at 536 nm against a reagent blank. The reaction mixture without any antioxidant was used as the negative control, and a mixture without H2O2 was used as the blank. The hydroxyl radical scavenging activity was calculated using the following formula: Hydroxyl radical scavenging activity (%) = [(As − An)/(Ab − An)] × 100% (3) where As, An, and Ab are the absorbance values determined at 536 nm of the sample, the negative control, and the blank after the reaction, respectively.
Stability of TGP3 and TGP4 were measured according to the previous method with minor modifications. A temperature-controlled water bath at 25, 37, 60, 80, or 100 °C for 0.5 h was used to measure thermostability of TGP3 and TGP4. Effects of pH treatments (pH 3, 5, 7, 9, or 11) of sample solutions incubated at 25 °C for 2.5 h were assessed to analyze the pH stability of TGP3 and TGP4. […] Hydroxyl radical scavenging activities (EC50 value) of the treated TGP3 and TGP4 were measured according to the previous methods.

[6] = cited from earlier work; for EC50 (half elimination ratio) on ABTS cation radical: APs from blue-spotted stingray
Excerpt: Bioactive peptides (BPs), which in general range from 2 to 20 amino acids in size, are fragments of proteins and become active when released during enzymatic hydrolysis, gastrointestinal transit, and fermentation. […] Furthermore, EC50 values of TGP3 and TGP4 were lower than those of APs from protein hydrolysates of skip ...

[7] = APs from miiuy croaker swim bladder
[8] = APs from croceine croaker scale
[9] = APs from spotless smoothhound (Mustelus griseus) muscle

VGGRP [literature AP from grass carp skin]
EC50 on hydroxyl radical ([1]; APs from grass carp skin): 2055 µg/mL

FWKVV [literature AP from miiuy croaker muscle]
EC50 on hydroxyl radical ([1]; APs from miiuy croaker muscle): 970 µg/mL
EC50 on superoxide anion radical ([2]; APs from miiuy croaker muscle): 290 µg/mL
EC50 on DPPH radical ([3]; APs from miiuy croaker muscle): 850 µg/mL

FSGLR [literature AP from miiuy croaker swim bladder]
EC50 on superoxide anion radical [2, 7]: 3350 µg/mL

FIGP [literature AP from bluefin leatherjacket skin]
EC50 on DPPH radical ([3]; AP from bluefin leatherjacket skin): 118 µg/mL

PYSFK [literature AP from grass carp skin]
EC50 on hydroxyl radical ([1]; APs from grass carp skin): 2283 µg/mL

ATSHH [literature peptide from protein hydrolysate of sandfish (Arctoscopus japonicus)]
Retention of activity after pH treatment ([4]; basic (pH 10–12) and acidic (pH 2) conditions): moderate losses of activity
Retention of DPPH radical scavenging activity after heating ([4]; incubated at 50–90 °C): partially lost its DPPH radical scavenging activity

GFRGTIGLVG [literature AP from croceine croaker scale]
EC50 on hydroxyl radical [1, 8]: 293 µg/mL

N[C@@H](Cc1c[nH]c2ccccc12)C(=O)N1CCC[C@H]1C(=O)N1CCC[C@H]1C(=O)N[C@@H](CC(=O)O)C(=O)O [TGP-4, Trp-Pro-Pro-Asp] (H-WPPD-OH)
Susceptibility to GI digestive enzymes [5]: partially susceptible to be degradated by GI digestive enzymes

GFEPY [literature AP from miiuy croaker swim bladder]
EC50 on superoxide anion radical [2, 7]: 870 µg/mL

FLNEFLHV [literature AP from salmon]
EC50 on ABTS cation radical ([6]; AP from salmon): 1548 µg/mL

HFGBPFH [literature AP from grass carp skin]
EC50 on DPPH radical ([3]; AP from grass carp skin): 200 µg/mL

KFPE [literature AP from spotless smoothhound muscle]
EC50 on hydroxyl radical [1, 9]: 151 µg/mL

FLHRP [literature AP from monkfish muscle]
EC50 on hydroxyl radical ([1]; APs from monkfish muscle): 114 µg/mL
EC50 on superoxide anion radical ([2]; APs from monkfish muscle): 101 µg/mL

GIISH [literature AP from spotless smoothhound muscle]
EC50 on hydroxyl radical [1, 9]: 76.9 µg/mL

NADFGLNGLEGLA [literature AP from giant squid]
EC50 on hydroxyl radical ([1]; AP from giant squid): 612 µg/mL

PSYV [literature AP from weatherfish loach]
EC50 on hydroxyl radical ([1]; AP from weatherfish loach): 2640 µg/mL

LGLNGDDVN [literature AP from conger eel]
EC50 on hydroxyl radical ([1]; AP from conger eel): 687 µg/mL

GFVG [literature AP from spotless smoothhound muscle]
EC50 on ABTS cation radical ([6]; APs from spotless smoothhound muscle, no reference given): 1305.5 µg/mL

GIEWA [literature AP from miiuy croaker swim bladder]
EC50 on hydroxyl radical [1, 7]: 710 µg/mL
EC50 on superoxide anion radical [2, 7]: 300 µg/mL
EC50 on DPPH radical ([3]; AP from miiuy croaker swim bladder): 780 µg/mL

GADIVA [literature AP from skipjack tuna bone]
EC50 on hydroxyl radical ([1]; APs from skipjack tuna bone): 250 µg/mL
EC50 on DPPH radical ([3]; APs from skipjack tuna bone): 570 µg/mL

YFLWP [literature AP from miiuy croaker muscle]
EC50 on superoxide anion radical ([2]; APs from miiuy croaker muscle): 3080 µg/mL

GFPSG [literature AP from croceine croaker scale]
EC50 on hydroxyl radical [1, 8]: 107 µg/mL
EC50 on superoxide anion radical [2, 8]: 151 µg/mL

GAEGFIF [literature AP from skipjack tuna bone]
EC50 on hydroxyl radical ([1]; APs from skipjack tuna bone): 320 µg/mL
EC50 on DPPH radical ([3]; APs from skipjack tuna bone): 300 µg/mL

WAFAPA [literature peptide from blue-spotted stingray]
Change of activity during heat treatment [4]: no significant (p > 0.05) differences
Change of activity during pH treatment [4]: no significant (p > 0.05) differences
EC50 (half elimination ratio) on ABTS cation radical [6]: 8330 µg/mL

EWPAQ [literature AP from monkfish muscle]
EC50 on hydroxyl radical ([1]; APs from monkfish muscle): 269 µg/mL

MYPGLA [literature peptide from blue-spotted stingray]
Change of activity during heat treatment [4]: no significant (p > 0.05) differences
Change of activity during pH treatment [4]: no significant (p > 0.05) differences
EC50 (half elimination ratio) on ABTS cation radical [6]: 12880 µg/mL

FMPLH [literature AP from miiuy croaker muscle]
EC50 on hydroxyl radical ([1]; APs from miiuy croaker muscle): 800 µg/mL
EC50 on superoxide anion radical ([2]; APs from miiuy croaker muscle): 150 µg/mL
EC50 on DPPH radical ([3]; APs from miiuy croaker muscle): 480 µg/mL

GPAGPAG [literature AP from croceine croaker scale]
EC50 on hydroxyl radical [1, 8]: 240 µg/mL
EC50 on superoxide anion radical [2, 8]: 99 µg/mL

NFWWP [literature AP from miiuy croaker muscle]
EC50 on superoxide anion radical ([2]; APs from miiuy croaker muscle): 840 µg/mL

YPPAK [literature AP from blue mussel]
EC50 on DPPH radical ([3]; AP from blue mussel): 2620 µg/mL

NWDMEKIWD [literature AP from skate muscle]
EC50 on DPPH radical ([3]; AP from skate muscle): 289 µg/mL

AGPM [literature AP from skipjack tuna bone]
EC50 on superoxide anion radical ([2]; APs from skipjack tuna bone): 1680 µg/mL
EC50 on ABTS cation radical ([6]; APs from skipjack tuna bone): 1480 µg/mL

MDLFTE [TGP-3, Met-Asp-Leu-Phe-Thr-Glu]
Susceptibility to GI digestive enzymes [5]: partially susceptible to be degradated by GI digestive enzymes

FPYLRH [literature AP from miiuy croaker swim bladder]
EC50 on hydroxyl radical [1, 7]: 680 µg/mL
EC50 on superoxide anion radical [2, 7]: 340 µg/mL

FIMGPY [literature AP from skate cartilage]
EC50 on ABTS cation radical ([6]; APs from skate cartilage): 1040 µg/mL

FTGMD [literature AP from miiuy croaker swim bladder]
EC50 on superoxide anion radical [2, 7]: 3040 µg/mL

IVAGPQ [literature AP from skate cartilage]
EC50 on ABTS cation radical ([6]; APs from skate cartilage): 1290 µg/mL

GPDGR [literature AP from skipjack tuna bone]
EC50 on superoxide anion radical ([2]; APs from skipjack tuna bone): 1440 µg/mL
EC50 on ABTS cation radical ([6]; APs from skipjack tuna bone): 1070 µg/mL

LMGQW [literature AP from monkfish muscle]
EC50 on hydroxyl radical ([1]; APs from monkfish muscle): 40 µg/mL
EC50 on superoxide anion radical ([2]; APs from monkfish muscle): 42 µg/mL

ELLI [literature AP from spotless smoothhound muscle]
EC50 on hydroxyl radical [1, 9]: 117.3 µg/mL
